Values of other authors in patent US8778892B2, “Compounds and methods for treatment of solid tumors” (B & G Partners, LLC, priority 2008, dated 2014).

Target: CD44 (Homo sapiens, UniProt P16070)
Conditions: intact cells

CD44, sequence (P16070 21-742, species assumed): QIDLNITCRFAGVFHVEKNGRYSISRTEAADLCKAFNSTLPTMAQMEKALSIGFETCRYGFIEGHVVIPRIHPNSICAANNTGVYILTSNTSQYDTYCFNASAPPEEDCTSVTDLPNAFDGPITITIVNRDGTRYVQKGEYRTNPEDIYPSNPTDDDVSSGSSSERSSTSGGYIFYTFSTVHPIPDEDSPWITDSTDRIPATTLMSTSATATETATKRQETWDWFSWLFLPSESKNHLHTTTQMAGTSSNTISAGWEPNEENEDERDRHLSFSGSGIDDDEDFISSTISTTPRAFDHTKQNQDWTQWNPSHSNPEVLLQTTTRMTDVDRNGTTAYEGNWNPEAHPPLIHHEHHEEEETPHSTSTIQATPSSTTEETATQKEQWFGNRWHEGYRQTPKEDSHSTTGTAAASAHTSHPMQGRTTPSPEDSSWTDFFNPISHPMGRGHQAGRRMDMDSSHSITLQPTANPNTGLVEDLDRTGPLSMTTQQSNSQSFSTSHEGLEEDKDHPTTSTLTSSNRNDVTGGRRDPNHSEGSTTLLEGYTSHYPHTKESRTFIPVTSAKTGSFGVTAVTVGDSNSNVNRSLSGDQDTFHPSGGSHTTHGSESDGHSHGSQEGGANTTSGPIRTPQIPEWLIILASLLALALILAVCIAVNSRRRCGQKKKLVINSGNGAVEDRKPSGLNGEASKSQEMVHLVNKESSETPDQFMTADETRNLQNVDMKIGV

## heparan sulfate
  capacity to compete with hyaluronan for binding: little capacity to compete

## chondroitin sulfate
  capacity to compete with hyaluronan for binding: little capacity to compete
